Like-named read-outs stand apart in the source and are kept apart here. One block for each compound: values may come before it.
Experiments:
[1] = tested on: SC-hCMs (stem cell cardiomyocytes); assay: Cardiomyocyte assay (CRL), iPSC cardiomyocytes; assay type: cell-based, human; settings: for ΔΔ Na Spike Amp at 10 μM, 48 h (%): corrected by time matched controls
Method: All measurements were performed at physiological temperature in a tissue culture incubator (37° C.; 5% CO2). Test article, positive controls and vehicle were added in a sterile tissue culture hood.
At least 10 h before compound addition SC-hCMs were exposed to the fresh culture medium. Before compound addition a one-minute recording of field potentials and impedance signals (baseline) was obtained. Test articles, vehicle and positive controls were added as a 2× concentration. One-minute recordings were obtained 0.5, 1, 2, 24 and 48 h after test article addition.
At the time of drug application, culture medium was added to an independent 96 well plate that was incubated in a tissue culture incubator for 48 h. This culture medium was used as the blank of the cTnI release assay.
After the 48 h exposure recording, 150 μL of each well was centrifuged to remove debris. The supernatant was collected and frozen for later cTnI content analysis using an ELISA plate according the manufacturer's instructions (Abcam, cat #ab200016).
Data was stored on the Charles River Laboratories computer network for off-line analysis. Data acquisition was performed using RTCA Cardio Software.
Data analysis was performed using RTCA Cardio Software, Microsoft Excel and Matlab scripts. Data were reported as mean±SEM.
The following field potential parameters were quantitated: Sodium Spike amplitude, Sodium Spike Rate, field potential duration (FPD), Bazett corrected field potential duration (FPDcB), and dysrhythmic events if present.
The following impedance parameters were quantitated: Cell Index, peak amplitude, relaxation from peak to 50% amplitude (Rel50) and twitch duration.
The sodium spike is the voltage signal produced by the propagation of the depolarizing wave (positive peak) and the local activation of sodium channels (negative peak). The sodium spike amplitude is the voltage difference (in […]) between the positive and negative peaks of the sodium spike. The Sodium Spike Rate is a measure of the rate of sodium spike generation (spikes/min) produced by the spontaneous beating of stem cell cardiomyocytes.
Abnormal rhythm activity was characterized by the presence of the following proarrhythmic markers:
Triggered activity: Triggered activity (TA) is activity characterized by the presence of voltage oscillations during the repolarization period (Early After Depolarizations, EADs) or after the repolarization is completed (Delayed After Depolarizations, DADs). They are produced by different mechanisms. EADs are due to reactivation of sodium and calcium currents due to prolongation of the action potential. DADs are due to transient releases of calcium from intracellular calcium stores. Both EADs and DADs can trigger action potentials (ectopic beats, EB).
Impedance instability: Impedance instability (II) consist of small oscillations of the impedance signal during the slower relaxation phase of the impedance twitch sometimes associated with small oscillations of the field potential (FPO). […] II informs about the possibility of drug-induced delayed repolarization setting the background where more robust proarrhythmic markers like EADs and DADs occur.
The SEM of the difference was calculated according to the following equation ΔΔSEM=(SEMtreatment2+SEMcontrol2)0.5.
The statistical analysis includes 1) a Student paired t-test to evaluate the changes respect to baseline and, 2) a multi-comparison analysis (Dunnett's test) of A % changes respect to time matched controls. An alpha probability of 0.05 was considered significant.

[2] = tested on: murine Hb9-GFP+ motor neurons in co-culture with ALS patient iAstrocytes; assay: Human iAstrocyte - murine Hb9-GFP+ motor neuron co-culture; assay type: cell-based, human iAstrocytes; settings: for rescue of motor neuron survival in co-culture with patient-derived iAstrocytes (FIG. 3): 72 hours co-culture, dose dependant, maximum responses close to positive control (1 μM Nilotinib); for efficacy at very high concentrations (motor neuron survival): potentially due to compound toxicity
Excerpt: iNPCs (induced Neuronal Progenitor Cells) were derived from ALS patient fibroblasts as described previously (Meyer et al. 20148). iNPCs were differentiated into iAstrocytes by culturing in iAsrocyte media for at least 5 days. Murine motor neurons expressing the green fluorescent protein (GFP) under the Hb9 motor neuron-specific promoter (called from now on Hb9-GFP+) were differentiated from murine embryonic stem cells via embryoid bodies (EBs), as previously described (Haidet-Phillips et al. 20119, Wichterle et al. 200210).
iNPCs and mESC were split into iAstrocyte media and mEB media respectively on the same day, such that iAstrocytes and motor neurons will have both differentiated for 7 days when seeded together in co-culture.
Changed media on iAstrocytes, and split using accutase if 90-100% confluent 3 days after seeding from iNPCs. iAstrocytes were left a further 2 days in iAstrocyte media until seeded onto 384-well plates.
Diluted fibronection 1:400 in PBS, and 5 μL added per well. The plate was incubated with fibronectin at room temp for at least 5 mins.
The media was removed from iAstrocytes, and washed in PBS. 1 mL accutase per 10 cm plate was added, and incubated at 37° C. for 4 mins. The plate was tapped to dislodge any remaining iAstrocytes. The iAstrocytes were resuspended in iAstro media, and centrifuged at 200×g for 4 mins. The supernatant was removed, the falcon was flicked to vortex the cells, and resuspended the cells in an appropriate amount of iAstrocyte media. Counted cells using the haemocytometer, and diluted cells to an appropriate dilution for seeding. Seeded 1-2,000 iAstrocytes in 35 μL media on fibronectin-coated 384-well plates. Centrifuged 384-well plates at 1,760×rpm for 60 s using a PK120 (ALC) centrifuged (in neurogenetics) to collect media and cells to base of wells. Plates were left for 24 h for iAstrocytes to adhere to plate.
Drugs were delivered in 100% drug-grade DMSO to iAstrocyte media using an Echo550 liquid handler (Labcyte). 384-well plates were centrifuged at 1,760×rpm for 60 s using a PK120 (ALC) centrifuge.
2 plates of EBs were collected in a 50 mL tube and centrifuged for 4 mins at 200×g. The supernatant was removed from EBs after centrifugation, and washed in 10 mL PBS then centrifuged again for 4 mins at 200×g, and PBS wash removed.
For each 50 mL tube, 2.75 mL EB dissociation buffer was added and then 250 μL 200 U/mL (10×) Papain. The solution was gently pipetted up and down 10 times, using a P1000 pipette, against the side of the falcon (EB pellet was not pipetted directly). 50 mL tube was put in 37° C. water bath and incubated for 5 mins. Tube removed every 3 mins and gently shaken. After 5 mins, additional 2 mL of EB dissociation and 100 μL 200 U/mL (10×) Papain were added, which was then pipette again 5 times with P1000 pipette, and returned to the water bath for another 5 mins. It was returned to water bath as before, and incubated for no longer than 15-20 mins.
Centrifuged for 5 mins at 300×g. Each 50 mL tube, 2.7 mL EB dissociation was prepared, to which 300 μL FBS and 150 μL 0.5 mg/mL DNaseI was added. The supernatant was removed from dissociated EBs and 3 mL of the FBS/DNaseI mix was added, pipetted up and down with P1000 pipette about 5 times. 5 mL FBS was added very slowly to the bottom of the falcon containing the dissociated EBs. The supernatant was removed and the cells very gently resuspended in about 3 mL MN media (more used if the pellet is large) and filtered through a 40 μm filter. 1 mL extra MN media was added to wash the filter.
2,500 murine Hb9-GFP+ motor neurons were seeded per well in 10 μL motor neuron media on top of the pre-treated iAstrocytes. 384-well plates were centrifuged at 1,760×rpm for 60 s using a PK120 (ALC) centrifuge.
Day8 15 μL motor neuron media were added per well. Hb9-GFP+ motor neurons were imaged using an INCELL analyser 2000 (GE Healthcare)—day 1 of co-culture. […]

[3] = tested on: α-synuclein in ReNcell VM Neuronal cells; assay: Modulation of α-synuclein aggregation; assay type: cell-based; settings: for amount of α-synuclein present in ReNcell VM neuronal cells (FIG. 4): 6 days of compound treatment, antibodies Syn205 and MJF-14; for IC50: ReNcell VM, 100% = reduction equal to 10 μM KU0063794, 0% = 0.1% DMSO
Method: Compounds were assessed for their ability to modulate α-synuclein aggregation. ReNcell VM Neuronal cells were transduced with α-synuclein encoded adenovirus, and compounds were added after 24 hours. After 72 hours, compound was refreshed. After an additional 72 h, cells were fixated (a total of 6 days of compound treatment). Two distinct α-synuclein antibodies were added (Syn205 and MJF-14), imaging was performed on IN Cell 2200 at 10× magnification. Immunoreactivity is quantified by a high content algorithm. Compound data is normalized to a negative control (0.1% DMSO) and a positive control (10 μM KU0063794; CAS 938440-64-3).

HUVEC = HUVEC Cell Viability (CV) assay; assay type: cell-based, human; settings: Homo sapiens, alamarBlue
Method: Cells are seeded at 10,000 cells/well in 96-well plates in HUVEC specific cell culture media. Cells are plated and cultured overnight (16-24 h) at 37° C. After the overnight culture, cells are washed and fed with the Assay Medium. Test compounds are applied and incubated with the cells for the designated time period, after which the cell viability is measured by alamarBlue method. […] The final DMSO concentration is 1%.
Fluorescence readings are recorded after the test compound and alamarBlue incubation. The excitation and emission wavelengths are 530 nm and 590 nm, respectively.
The percent of control is calculated by comparing the readings in the presence of the test compound to the vehicle control. Subsequently, the percent inhibition is calculated by subtracting the percent control activity from 100. IC50 values (concentration causing a half-maximal inhibition of the control value) are determined by non-linear regression analysis of the concentration-response curves using the Hill equation.
The reference compound used for this assay is Staurosporine.

[4] = tested on: HUVEC (human umbilical venous endothelial cells); assay: HUVEC Tube Formation assay; assay type: cell-based
Method: HUVEC (human umbilical venous endothelial cells, 1.5×10^4/well, ATCC CRL-1730) are placed in an earlier prepared 96-well plate. Test substance and/or vehicle is then added to each well in a final concentration of 0.4% DMSO in growth medium under an atmosphere of 5% CO2 at 37° C. After an 18 h incubation period, morphology of the endothelial cell tubes, which resemble a capillary-like network, are evaluated by a confocal high-content imaging system. Disruption (anti-angiogenesis) of total tube length is measured from each photograph and determined relative to the vehicle control group. […] Compounds are screened at 30, 3, 0.3, 0.03 and 0.003 μM (or μg/mL) in triplicate.

effect on sodium spike amplitude vs. control (given as reduction for nilotinib and Example 39) ([1]; 10 μM after 48 hours): 96.2%
Structure (SMILES): Cc1cn(-c2cc(NC(=O)c3ccc(C)c(Nc4nccc(-c5cccnc5)n4)c3)cc(C(F)(F)F)c2)cn1 [nilotinib, Nilotinib]
proarrhythmic markers observed ([1]; 10 μM, 48 h): triggered activity and impedance instability

IC50 [3]: 1000 to 10000 nM
Structure (SMILES): Cc1ccc(C(=O)Nc2cnn(C(C)C)c2)cc1C#Cc1cccnc1 [Example 24, N-(1-isopropylpyrazol-4-yl)-4-methyl-3-[2-(3-pyridyl)ethynyl]benzamide]
rescue of motor neuron survival in co-culture with patient-derived iAstrocytes (FIG. 3) [2]: rescue motor neuron survival
efficacy at very high concentrations (motor neuron survival) [2]: reduction in efficacy at very high concentrations
amount of α-synuclein present in ReNcell VM neuronal cells (FIG. 4) [3]: dose dependant reduction

Structure (SMILES): Cc1ccc(C(=O)Nc2ccc(CN3CCN(C)CC3)c(C(F)(F)F)c2)cc1C#Cc1cnc2cccnn12 [Comparative Example 2, 3-(imidazo[1,2-b]pyridazin-3-ylethynyl)-4-methyl-N-[4-[(4-methyl-1-piperazinyl)methyl]-3-(trifluoromethyl)phenyl]benzamide, reference compound]
IC50 (HUVEC): 320 nM
GI50 ([4]; 18 h, read-out: Tube formation GI50 (μM)): 1.2 µM
Proarrhythmic Markers at 10 μM, 48 h ([1]; 10 μM, 48 h): Q and RV
ΔΔ Na Spike Amp at 10 μM, 48 h (%) ([1]; 10 μM, 48 h): (cells quiescent)

IC50 [3]: 1000 to 10000 nM
Structure (SMILES): Cc1ccc(C(=O)Nc2cc3n(n2)CCC3(C)C)cc1C#Cc1cccnc1 [Example 26, N-(4,4-dimethyl-5,6-dihydropyrrolo[1,2-b]pyrazol-2-yl)-4-methyl-3-[2-(3-pyridyl)ethynyl]benzamide]
rescue of motor neuron survival in co-culture with patient-derived iAstrocytes (FIG. 3) [2]: rescue motor neuron survival
amount of α-synuclein present in ReNcell VM neuronal cells (FIG. 4) [3]: dose dependant reduction

ΔΔ Na Spike Amp at 10 μM, 48 h (%) ([1]; 10 μM, 48 h): −96.2%
Structure (SMILES): Cc1cn(-c2cc(NC(=O)c3ccc(C)c(Nc4nccc(-c5cccnc5)n4)c3)cc(C(F)(F)F)c2)cn1 [Comparative Example 3, 4-methyl-N-[3-(4-methylimidazol-1-yl)-5-(trifluoromethyl)phenyl]-3-[(4-pyridin-3-ylpyrimidin-2-yl)amino]benzamide, reference compound]
IC50 (HUVEC): 3600 nM
GI50 ([4]; 18 h incubation, read-out: Tube formation GI50): > 10 µM
Proarrhythmic Markers at 10 μM, 48 h ([1]; 10 μM, 48 h): II and TA

Structure (SMILES): Cc1ccc(C(=O)Nc2cnn(C(C)C3CC3)c2)cc1C#Cc1cccnc1 (centres unmarked) [Example 17, N-[1-(1-cyclopropylethyl)-1H-pyrazol-4-yl]-4-methyl-3-[2-(pyridin-3-yl)ethynyl]benzamide]
rescue of motor neuron survival in co-culture with patient-derived iAstrocytes (FIG. 3) [2]: rescue motor neuron survival
efficacy at very high concentrations (motor neuron survival) [2]: reduction in efficacy at very high concentrations

Structure (SMILES): Cc1ccc(C(=O)Nc2cnn(C(C)(C)C)c2)cc1C#Cc1cccnc1 [Example 10, N-(1-tert-butyl-1H-pyrazol-4-yl)-4-methyl-3-[2-(pyridin-3-yl)ethynyl]benzamide]
rescue of motor neuron survival in co-culture with patient-derived iAstrocytes (FIG. 3) [2]: rescue motor neuron survival

Reference: patent US20230014226A1, “NEW COMPOUNDS AND METHODS” (BenevolentAI Bio Limited, priority 2019, published 2023)
